For experiment [1], the system named is HCV genotype 1a (H77 strain) replicon in HUH-7 cells. Briefly: HCV replicon luciferase reporter assay, genotype 1a. The format is cell-based. The conditions noted are these: Hepatitis C virus, Huh-7, 72 h, HCV genotype 1a replicon luciferase assay, 3 days incubation, range class, read-out: LE_1a (EC50, range). An outline of the steps: (§1)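 Replicon inhibition for both genotypes was measured as Renilla luciferase signal (EnduRen, 7.5 μM final, 2 h) after 3-day, 37° C exposure of replicon-bearing HUH-7 cells in 4% FCS DMEM, 0.5% DMSO. The 1b construct carries S1179I; the 1a H77 construct carries P1496L and S2204I. Twenty-point, 3-fold dilutions were fitted four-parametrically for EC50, and CC50 was taken from multiplexed Cell Titer-Blue.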

Experiment [2] has as its system HCV genotype 1b (Con1) replicon in HUH-7 cells. Nature of the experiment: HCV replicon luciferase reporter assay, genotype 1b. Conditions: Hepatitis C virus, Huh-7, 72 h, HCV genotype 1b replicon luciferase assay, 3 days incubation, range class, read-out: LE_1b (EC50, range). The experiment is classed as cell-based. An outline of the steps: as §1
For orientation: In antiviral work, replicon cells carry a viral genome segment that copies itself.

Each structure is given as a SMILES string. Where two headings read alike, the source gives them in different places.

Among the data in US9499550B2 (BRISTOL-MYERS SQUIBB COMPANY, priority 2012, dated 2016) are EC50 values, retold here.

As for `CC[C@@H]1C[C@@H](C)CC/C=C\[C@@H]2C[C@@]2(C(=O)NS(=O)(=O)C2(C)CC2)NC(=O)[C@@H]2C[C@@H](Oc3nc(OC)cc4cc(OC)ccc34)CN2C(=O)[C@H]1NC(=O)OC(C)(C)C(C)(F)F` [Compound 1123, 3,3-difluoro-2-methylbutan-2-yl((2R,6S,7R,9S,13aS,14aR,16aS,Z)-2-((3,6-dimethoxyisoquinolin-1-yl)oxy)-7-ethyl-9-methyl-14a-(((1-methylcyclopropyl)sulfonyl)carbamoyl)-5,16-dioxo-1,2,3,5,6,7,8,9,10,11,13a,14,14a,15,16,16a-hexadecahydrocyclopropa[e]pyrrolo[1,2-a][1,4]diazacyclopentadecin-6-yl)carbamate], the EC50 in experiment [1] and in experiment [2] was less than 5.46 nM throughout.

Regarding `CC[C@@H]1C[C@H](C)CC/C=C\[C@@H]2C[C@@]2(C(=O)NS(=O)(=O)C2(C)CC2)NC(=O)[C@@H]2C[C@@H](Oc3nc(OC)cc4cc(OC)ccc34)CN2C(=O)[C@H]1NC(=O)OC(C)(C)C(C)(F)F` [Compound 1124, 3,3-difluoro-2-methylbutan-2-yl((2R,6S,7R,9R,13aS,14aR,16aS,Z)-2-((3,6-dimethoxyisoquinolin-1-yl)oxy)-7-ethyl-9-methyl-14a-(((1-methylcyclopropyl)sulfonyl)carbamoyl)-5,16-dioxo-1,2,3,5,6,7,8,9,10,11,13a,14,14a,15,16,16a-hexadecahydrocyclopropa[e]pyrrolo[1,2-a][1,4]diazacyclopentadecin-6-yl)carbamate], the EC50 in experiment [1] and in experiment [2] was less than 5.46 nM in each case.

Turning to `COc1ccc2c(O[C@@H]3C[C@H]4C(=O)N[C@]5(C(=O)NS(=O)(=O)C6(CF)CC6)C[C@H]5/C=C\CC[C@@H](C)C[C@@H](C)[C@H](NC(=O)OC(C)(C)C)C(=O)N4C3)nc(OC)cc2c1` [Compound 1125, tert-butyl ((2R,6S,7R,9R,13aS,14aR,16aS,Z)-2-((3,6-dimethoxyisoquinolin-1-yl)oxy)-14a-(((1-(fluoromethyl)cyclopropyl)sulfonyl)carbamoyl)-7,9-dimethyl-5,16-dioxo-1,2,3,5,6,7,8,9,10,11,13a,14,14a,15,16,16a-hexadecahydrocyclopropa[e]pyrrolo[1,2-a][1,4]diazacyclopentadecin-6-yl)carbamate], the EC50 in experiment [1] and in experiment [2] was less than 5.46 nM throughout.

`COc1ccc2c(O[C@@H]3C[C@H]4C(=O)N[C@]5(C(=O)NS(=O)(=O)C6(CF)CC6)C[C@H]5/C=C\CC[C@H](C)C[C@@H](C)[C@H](NC(=O)OC(C)(C)C(F)(F)F)C(=O)N4C3)nc(OC)cc2c1` [Compound 1126, 1,1,1-trifluoro-2-methylpropan-2-yl((2R,6S,7R,9S,13aS,14aR,16aS,Z)-2-((3,6-dimethoxyisoquinolin-1-yl)oxy)-14a-(((1-(fluoromethyl)cyclopropyl)sulfonyl)carbamoyl)-7,9-dimethyl-5,16-dioxo-1,2,3,5,6,7,8,9,10,11,13a,14,14a,15,16,16a-hexadecahydrocyclopropa[e]pyrrolo[1,2-a][1,4]diazacyclopentadecin-6-yl)carbamate]: the concentration giving a half-maximal response (EC50) was 4.82 to 103 nM in experiment [1] and less than 5.46 nM in experiment [2].

In the case of `COc1ccc2c(O[C@@H]3C[C@H]4C(=O)N[C@]5(C(=O)NS(=O)(=O)C6(CF)CC6)C[C@H]5/C=C\CC[C@@H](C)C[C@@H](C)[C@H](NC(=O)OC(C)(C)C(F)(F)F)C(=O)N4C3)nc(OC)cc2c1` [Compound 1127, 1,1,1-trifluoro-2-methylpropan-2-yl((2R,6S,7R,9R,13aS,14aR,16aS,Z)-2-((3,6-dimethoxyisoquinolin-1-yl)oxy)-14a-(((1-(fluoromethyl)cyclopropyl)sulfonyl)carbamoyl)-7,9-dimethyl-5,16-dioxo-1,2,3,5,6,7,8,9,10,11,13a,14,14a,15,16,16a-hexadecahydrocyclopropa[e]pyrrolo[1,2-a][1,4]diazacyclopentadecin-6-yl)carbamate], the EC50 in experiment [1] and in experiment [2] was less than 5.46 nM in each case.

Regarding `COc1ccc2c(O[C@@H]3C[C@H]4C(=O)N[C@]5(C(=O)NS(=O)(=O)C6(CF)CC6)C[C@H]5/C=C\CC[C@@H](C)C[C@@H](C)[C@H](NC(=O)OC(C)(C)C(C)(F)F)C(=O)N4C3)nc(OC)cc2c1` [Compound 1128], the EC50 in experiment [1] (GETYPE1A) and in experiment [2] (GETYPE1B) was less than 5.46 nM in each case.

`COc1ccc2c(O[C@@H]3C[C@H]4C(=O)N[C@]5(C(=O)NS(=O)(=O)C6(CF)CC6)C[C@H]5/C=C\CC[C@@H](C)C[C@@H](C)[C@H](NC(=O)OC5COC5)C(=O)N4C3)nc(OC)cc2c1` [Compound 1129, oxetan-3-yl ((2R,6S,7R,9R,13aS,14aR,16aS,Z)-2-((3,6-dimethoxyisoquinolin-1-yl)oxy)-14a-(((1-(fluoromethyl)cyclopropyl)sulfonyl)carbamoyl)-7,9-dimethyl-5,16-dioxo-1,2,3,5,6,7,8,9,10,11,13a,14,14a,15,16,16a-hexadecahydrocyclopropa[e]pyrrolo[1,2-a][1,4]diazacyclopentadecin-6-yl)carbamate]: the half-maximal effective concentration (EC50) in experiment [1] and in experiment [2] was less than 5.46 nM throughout.

Take `COc1ccc2c(O[C@@H]3C[C@H]4C(=O)N[C@]5(C(=O)NS(=O)(=O)C6(C)CC6)C[C@H]5/C=C\CC[C@H](C)C[C@@H](C)[C@H](NC(=O)OC(C)(C)C)C(=O)N4C3)nc(OC)cc2c1` [Compound 1130, tert-butyl ((2R,6S,7R,9S,13aS,14aR,16aS,Z)-2-((3,6-dimethoxyisoquinolin-1-yl)oxy)-7,9-dimethyl-14a-(((1-methylcyclopropyl)sulfonyl)carbamoyl)-5,16-dioxo-1,2,3,5,6,7,8,9,10,11,13a,14,14a,15,16,16a-hexadecahydrocyclopropa[e]pyrrolo[1,2-a][1,4]diazacyclopentadecin-6-yl)carbamate]: the concentration for a half-maximal effect (EC50) in experiment [1] and in experiment [2] was less than 5.46 nM each time.

On to `COc1ccc2c(O[C@@H]3C[C@H]4C(=O)N[C@]5(C(=O)NS(=O)(=O)C6(C)CC6)C[C@H]5/C=C\CC[C@@H](C)C[C@@H](C)[C@H](NC(=O)OC(C)(C)C)C(=O)N4C3)nc(OC)cc2c1` [Compound 1131, tert-butyl ((2R,6S,7R,9R,13aS,14aR,16aS,Z)-2-((3,6-dimethoxyisoquinolin-1-yl)oxy)-7,9-dimethyl-14a-(((1-methylcyclopropyl)sulfonyl)carbamoyl)-5,16-dioxo-1,2,3,5,6,7,8,9,10,11,13a,14,14a,15,16,16a-hexadecahydrocyclopropa[e]pyrrolo[1,2-a][1,4]diazacyclopentadecin-6-yl)carbamate], for which the concentration for a half-maximal effect (EC50) in experiment [1] and in experiment [2] was less than 5.46 nM each time.

In the case of `COc1ccc2c(O[C@@H]3C[C@H]4C(=O)N[C@]5(C(=O)NS(=O)(=O)C6(C)CC6)C[C@H]5/C=C\CC[C@H](C)C[C@@H](C)[C@H](NC(=O)OC(C)(C)C(F)(F)F)C(=O)N4C3)nc(OC)cc2c1` [Compound 1132, 1,1,1-trifluoro-2-methylpropan-2-yl((2R,6S,7R,9S,13aS,14aR,16aS,Z)-2-((3,6-dimethoxyisoquinolin-1-yl)oxy)-7,9-dimethyl-14a-(((1-methylcyclopropyl)sulfonyl)carbamoyl)-5,16-dioxo-1,2,3,5,6,7,8,9,10,11,13a,14,14a,15,16,16a-hexadecahydrocyclopropa[e]pyrrolo[1,2-a][1,4]diazacyclopentadecin-6-yl)carbamate], the concentration giving a half-maximal response (EC50) in experiment [1] and in experiment [2] was less than 5.46 nM in each case.

For the compound `COc1ccc2c(O[C@@H]3C[C@H]4C(=O)N[C@]5(C(=O)NS(=O)(=O)C6(C)CC6)C[C@H]5/C=C\CC[C@@H](C)C[C@@H](C)[C@H](NC(=O)OC(C)(C)C(F)(F)F)C(=O)N4C3)nc(OC)cc2c1` [Compound 1133, 1,1,1-trifluoro-2-methylpropan-2-yl((2R,6S,7R,9R,13aS,14aR,16aS,Z)-2-((3,6-dimethoxyisoquinolin-1-yl)oxy)-7,9-dimethyl-14a-(((1-methylcyclopropyl)sulfonyl)carbamoyl)-5,16-dioxo-1,2,3,5,6,7,8,9,10,11,13a,14,14a,15,16,16a-hexadecahydrocyclopropa[e]pyrrolo[1,2-a][1,4]diazacyclopentadecin-6-yl)carbamate], the concentration for a half-maximal effect (EC50) in experiment [1] and in experiment [2] was less than 5.46 nM throughout.

As for `CCN(C)c1cc2cc(OC)ccc2c(O[C@@H]2C[C@H]3C(=O)N[C@]4(C(=O)NS(=O)(=O)C5(CF)CC5)C[C@H]4/C=C\CC[C@H](C)C[C@@H](C)[C@H](NC(=O)OC(C)(C)C)C(=O)N3C2)n1` [Compound 1134, tert-butyl ((2R,6S,7R,9S,13aS,14aR,16aS,Z)-2-((3-(ethyl(methyl)amino)-6-methoxyisoquinolin-1-yl)oxy)-14a-(((1-(fluoromethyl)cyclopropyl)sulfonyl)carbamoyl)-7,9-dimethyl-5,16-dioxo-1,2,3,5,6,7,8,9,10,11,13a,14,14a,15,16,16a-hexadecahydrocyclopropa[e]pyrrolo[1,2-a][1,4]diazacyclopentadecin-6-yl)carbamate], the EC50 in experiment [1] and in experiment [2] was more than 87.4 nM in each case.

`CCN(C)c1cc2cc(OC)ccc2c(O[C@@H]2C[C@H]3C(=O)N[C@]4(C(=O)NS(=O)(=O)C5(CF)CC5)C[C@H]4/C=C\CC[C@@H](C)C[C@@H](C)[C@H](NC(=O)OC(C)(C)C)C(=O)N3C2)n1` [Compound 1135, tert-butyl ((2R,6S,7R,9R,13aS,14aR,16aS,Z)-2-((3-(ethyl(methyl)amino)-6-methoxyisoquinolin-1-yl)oxy)-14a-(((1-(fluoromethyl)cyclopropyl)sulfonyl)carbamoyl)-7,9-dimethyl-5,16-dioxo-1,2,3,5,6,7,8,9,10,11,13a,14,14a,15,16,16a-hexadecahydrocyclopropa[e]pyrrolo[1,2-a][1,4]diazacyclopentadecin-6-yl)carbamate]: the figures for the concentration giving a half-maximal response (EC50) in experiment [1] and in experiment [2] were 4.82 to 103 nM and less than 5.46 nM, respectively.

Broadly, the EC50 is the midpoint of the concentration-response curve.
